Earlier results on 1 compound are cited in patent publication US20230091009A1, “METHOD FOR PROMOTING GROWTH OF GAS-FERMENTED MICROORGANISMS” (HARBIN INSTITUTE OF TECHNOLOGY, SHENZHEN, priority 2021, published 2023).

For this data set the following is noted: ambient conditions, even in a supersaturated state.

As to `[HH]` [hydrogen], the solubility in water entry is on record as “about 0.79 mmol/l”.
